Experimental data reported in patent publication USRE48461E1, “Modulation of androgen receptor expression” (Ionis Pharmaceuticals, Inc., priority 2012, dated 2021).
Oligonucleotides are written 5' to 3', each unit as a sugar letter and its base; * is a phosphorothioate linkage, no mark a phosphodiester; rarer units and linkages stand in square brackets, end groups in braces. Plain capitals give the bases only. k = constrained ethyl (cEt); [5mC] = 5-methylcytosine; d = 2'-deoxy (DNA)

Assays:
Format in all cases: cell-based, human
full-length AR = assay: Western blot of full-length AR in MDV3100-resistant C4-2B cells
Procedure: (§1) ISIS 549372, ISIS 549434, and ISIS 554221 at 1 μM concentration of antisense oligonucleotide were each added to the culture media at 1 μM concentration for free uptake by the cells. After a treatment period of 2 days, cells were harvested in RIPA buffer containing protease inhibitors. The presence of bands for full-length AR, as well as the variant form, AR-V7, was detected by western blot using AR antibody (N-20, Santa Cruz).
(§2) Western analysis of full-length AR, as well as the AR-V7 variant, was also conducted in a manner similar to the assay described above.

AR-V7 = assay: Western blot of AR-V7 in MDV3100-resistant C4-2B cells
Procedure: as §1, §2

total AR mRNA = assay: Total (full-length) AR mRNA in C4-2B MR cells, free uptake; conditions: C4-2B MR cells, 0.04-5.00 μM free uptake, 24 hrs
How it was run: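 Cells grown in RPMI1640 with 10% FBS received antisense oligonucleotides at 0.04, 0.20, 1.00 and 5.00 μM in the medium by free uptake, no transfection agent. After 24 hrs, total AR mRNA quantified by real-time qPCR with primer probe set RTS3559.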

KLK3 mRNA = KLK3 mRNA (AR target gene) in C4-2B MR cells; conditions: C4-2B MR cells, 0.04-5.00 μM
KLK2 mRNA = KLK2 mRNA (AR target gene) in C4-2B MR cells; conditions: C4-2B MR cells, 0.04-5.00 μM
C4-2B MR cells = assay: Proliferation of MDV3100-resistant C4-2B cells (CellTiter 96); conditions: 0.04-5.00 μM, 6 days
How it was run: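 Antisense oligonucleotides were added to the culture medium at 0.04, 0.20, 1.00 and 5.00 μM, with a non-targeting oligonucleotide as negative control. After 6 days of treatment, proliferation was read with CellTiter 96 AQueous One. Values are percent inhibition relative to untreated cells.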

C4-2B cells [1] = assay: C4-2B cell proliferation, ASO in combination with MDV3100 (Example 19)
Procedure: C4-2B cells were plated at 1,500 cells per well. […] ISIS 347526 was included as a negative control. […] After a treatment period of 6 days, the proliferative capacity of the cancer cells was measured with CellTiter 96® AQueous One Solution Cell Proliferation kit (Promega), following the manufacturer's instructions. Results are presented in Table 46 as percent inhibition of proliferation, relative to non-treated cells. Treatment of the cells with ISIS 549372 or ISIS 549458 reduced proliferation of the cells more extensively than treatment with ISIS 554221.

AR full-length mRNA = AR full-length mRNA in CWR22-RV1 cells (RNAiMax, RTS3559); conditions: 6 days
Procedure: (§3) CWR22-RV1 cells were plated and transfected using RNAiMax reagent (Life Technologies) with ISIS oligonucleotides at 1.7 nM, 5.0 nM, 16.7 nM, or 50 nM concentrations. ISIS 347526 was included as a negative control. After a treatment period of 6 days, the target reduction and proliferative capacity of the cancer cells was measured.
(§4) Antisense inhibition of AR full-length mRNA was measured with the RTS3559 primer probe set. The results are presented in Table 63 as percent inhibition relative to non-treated cells. The reduction in V7 splice variant of the AR mRNA was also measured by RT-PCR using SYBR Green staining (Hu, R. et al., Cancer Res. 2009. 69: 16-22). The results are presented in Table 64, as percent reduction, relative to non-treated cells. Cell proliferation was measured with CellTiter 96® AQueous One Solution Cell Proliferation kit (Promega), following the manufacturer's instructions. Results are presented in Table 65 as percent inhibition of proliferation, relative to non-treated cells.

[2] = system: V7 splice variant of the AR mRNA; assay: AR V7 splice variant mRNA in CWR22-RV1 cells (RT-PCR SYBR Green); conditions: RNAiMax, 6 days
Procedure: as §3, §4

CWR22-RV1 cells = assay: CWR22-RV1 cell proliferation (CellTiter 96); conditions: RNAiMax, 6 days
Procedure: as §3, §4

AR mRNA = AR mRNA in C4-2B cells by free uptake (hAR_LTS00943); conditions: 24 hrs; for Percent inhibition of AR full-length mRNA: free uptake
Procedure: (§5) Cells were plated at a concentration of 1,000 cells/well in 96-well plates to measure cell proliferation, and at 4,000 cells/well to measure target reduction. ISIS 549458, ISIS 549372, ISIS 549434, and ISIS 554221 were added individually at 0.04 μM, 0.20 μM, 1.00 μM, or 5.00 μM. After an incubation period of 24 hrs, mRNA levels were measured using hAR_LTS00943.

C4-2B cells [3] = assay: C4-2B cell proliferation by free uptake (MTT); conditions: day 6
Procedure: as §5
On day 6, cells plated for measuring proliferation were incubated with MTT reagent until the development of color. Color intensity was measured using a spectrophotometer at 490 nm.

[4] = C4-2B MR cells, 1 μM ASO free uptake, 2 days (Example 15)

Sequence: AAGTTGTAGTAGTCGC (kA*kA*kG*dT*dT*dG*dT*dA*dG*dT*dA*dG*dT*k[5mC]*kG*k[5mC]) [ISIS 549372, targets exon 1]
- levels of full-length AR (Western analysis) (full-length AR; C4-2B MR cells (Example 16)): reduced levels of full-length AR and AR-V7
- full-length AR (western blot) (full-length AR; [4]): reduced full-length AR and AR-V7 more extensively than treatment with either ISIS 554221 or ISIS 549434
- levels of AR-V7 (Western analysis) (AR-V7; C4-2B MR cells (Example 16)): reduced levels of full-length AR and AR-V7
- AR-V7 (western blot) (AR-V7; [4]): reduced full-length AR and AR-V7 more extensively than treatment with either ISIS 554221 or ISIS 549434
- total AR transcript levels (total AR mRNA): reduced total AR transcript levels in a dose dependent manner more extensively than treatment with ISIS 554221
- AR target gene KLK3 mRNA levels (KLK3 mRNA): reduced target gene levels in a dose dependent manner more extensively than treatment with ISIS 554221
- AR target gene KLK2 mRNA levels (KLK2 mRNA): reduced target gene levels in a dose dependent manner more extensively than treatment with ISIS 554221
- proliferation of C4-2B MR cells (C4-2B MR cells): reduced proliferation of the cells in a dose dependent manner more extensively than treatment with ISIS 554221
- Percent inhibition of C4-2B cell proliferation with 0.1 μM ASO (C4-2B cells [1]; 0.1 μM ASO + MDV3100 1 μM, 6 days): 66%
- Percent inhibition of C4-2B cell proliferation with 0.1 μM ASO (C4-2B cells [1]; 0.1 μM ASO + MDV3100 […], 6 days): 44%
- Percent inhibition of C4-2B cell proliferation with 0.1 μM ASO (C4-2B cells [1]; 0.1 μM ASO, MDV3100 0 μM, 6 days): 23%
- Percent inhibition of C4-2B cell proliferation with 0.2 μM ASO (C4-2B cells [1]; 0.2 μM ASO + MDV3100 1 μM, 6 days): 77%
- Percent inhibition of C4-2B cell proliferation with 0.2 μM ASO (C4-2B cells [1]; 0.2 μM ASO + MDV3100 […], 6 days): 69%
- Percent inhibition of C4-2B cell proliferation with 0.2 μM ASO (C4-2B cells [1]; 0.2 μM ASO, MDV3100 0 μM, 6 days): 59%
- synergy with MDV3100 (C4-2B cells [1]; C4-2B cells): synergistic with MDV3100
- cell proliferation inhibited, combination (C4-2B cells [1]; C4-2B cells, 0.1 μM ASO in combination with […] MDV3100): 66%
- inhibited cell proliferation, ASO alone (C4-2B cells [1]; C4-2B cells, ASO alone at 0.1 μM): 23%
- reduced cell proliferation, ASO alone (C4-2B cells [1]; C4-2B cells, ASO alone, 6 days, Table 46 (0.1 μM ASO)): 59%
- prostate cancer cell proliferation, ASO in combination with MDV3100 (C4-2B cells [1]; C4-2B cells, versus equal molar ISIS 554221 + MDV3100): inhibited prostate cancer cell proliferation to a greater extent than an equal molar concentration of ISIS 554221 in combination of MDV3100
- Percent inhibition of AR full-length mRNA (AR full-length mRNA; dose 5.0 nM): 53%
- Percent inhibition of AR full-length mRNA (AR full-length mRNA; dose 16.7 nM): 64%
- Percent inhibition of AR full-length mRNA (AR full-length mRNA; dose 50.0 nM): 78%
- Percent inhibition of AR splice variant, V7 ([2]; dose 5.0 nM): 35%
- Percent inhibition of AR splice variant, V7 ([2]; dose 16.7 nM): 56%
- Percent inhibition of AR splice variant, V7 ([2]; dose 50.0 nM): 82%
- Percent inhibition of cell proliferation (CWR22-RV1 cells; dose 5.0 nM): 0%
- Percent inhibition of cell proliferation (CWR22-RV1 cells; dose 16.7 nM): 25%
- Percent inhibition of cell proliferation (CWR22-RV1 cells; dose 50.0 nM): 53%
- AR mRNA expression (AR mRNA; free uptake 0.04-5.00 μM): inhibited AR mRNA expression more potently than ISIS 554221
- Percent inhibition of AR full-length mRNA (AR mRNA; dose 0.04 μM): 10%
- Percent inhibition of AR full-length mRNA (AR mRNA; dose 0.20 μM): 36%
- Percent inhibition of AR full-length mRNA (AR mRNA; dose 1.00 μM): 73%
- Percent inhibition of AR full-length mRNA (AR mRNA; dose 5.00 μM): 80%
- Percent inhibition of cell proliferation (C4-2B cells [3]; dose 0.04 μM): 8%
- Percent inhibition of cell proliferation (C4-2B cells [3]; dose 0.20 μM): 34%
- Percent inhibition of cell proliferation (C4-2B cells [3]; dose 1.00 μM): 44%
- Percent inhibition of cell proliferation (C4-2B cells [3]; dose 5.00 μM): 45%
